Results: patent US20230241245A1, “Therapeutic Carbon Nanomaterial H2S Oxidants for Biological Polysulfide Synthesis” (The Texas A&M University System, priority 2020, published 2023)

Test system: bEnd.3 cells
Experiment: SSP4 fluorescence photomicrographs of bEnd.3 cells with or without AP39 and PEG-OAC
Type: cell-based
Conditions: PEG-OACs 4 mg/L

O=C(CCCCCCCCC[P+](c1ccccc1)(c1ccccc1)c1ccccc1)Oc1ccc(-c2cc(=S)ss2)cc1.[Br-] [AP39]
SSP4 fluorescence, agent alone relative to control: increases the fluorescence signal
